Source: ChEMBL document CHEMBL1141596, “A new class of bradykinin B1 receptor antagonists with high oral bioavailability and minimal PXR activity” (Bioorg Med Chem Lett, 2008)

Tests used:
[1] = Oral bioavailability in Mongrel dog at 3 mg/kg; assay type: ADME, organism-based, Canis lupus familiaris; conditions: in vivo
[2] = Oral bioavailability in rhesus monkey at 3 mg/kg; assay type: ADME, organism-based, Macaca mulatta; conditions: in vivo
[3] = molecular target: T1, B1 bradykinin receptor (Homo sapiens) (UniProt P46663); test: Ex vivo receptor occupancy at bradykinin B1 receptor
T1 sequence (whole entry): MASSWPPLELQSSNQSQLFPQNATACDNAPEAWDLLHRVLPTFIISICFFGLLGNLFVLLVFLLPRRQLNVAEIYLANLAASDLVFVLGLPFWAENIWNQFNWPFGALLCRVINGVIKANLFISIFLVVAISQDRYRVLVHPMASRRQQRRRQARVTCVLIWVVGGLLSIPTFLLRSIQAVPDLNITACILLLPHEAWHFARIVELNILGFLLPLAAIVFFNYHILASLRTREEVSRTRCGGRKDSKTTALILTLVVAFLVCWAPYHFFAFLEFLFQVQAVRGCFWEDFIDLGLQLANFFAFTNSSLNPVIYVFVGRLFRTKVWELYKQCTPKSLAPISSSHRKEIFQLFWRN

[4] = Clearance in Mongrel dog at 1 mg/kg, iv; assay type: ADME, organism-based, Canis lupus familiaris; parameters: dose 1 mg/kg, route intravenous; conditions: in vivo
[5] = Clearance in rhesus monkey at 3 mg/kg, po or 1 mg/kg, iv; assay type: ADME, organism-based, Macaca mulatta; conditions: in vivo
[6] = Ratio of drug level in brain to plasma in african green monkey; assay type: ADME, organism-based; conditions: chlorocebus aethiops
[7] = Half life in rhesus monkey at 3 mg/kg, po or 1 mg/kg, iv; assay type: ADME, organism-based, Macaca mulatta; conditions: in vivo
[8] = molecular target: T2, PXR (Nuclear receptor subfamily 1 group I member 2) (Homo sapiens, UniProt O75469); test: Reduction of PXR activation at 10 uM relative to rifampicin; parameters: scale not given: the % may be the effect or the level left; conditions: read-out: Activity
T2 sequence (O75469 whole entry): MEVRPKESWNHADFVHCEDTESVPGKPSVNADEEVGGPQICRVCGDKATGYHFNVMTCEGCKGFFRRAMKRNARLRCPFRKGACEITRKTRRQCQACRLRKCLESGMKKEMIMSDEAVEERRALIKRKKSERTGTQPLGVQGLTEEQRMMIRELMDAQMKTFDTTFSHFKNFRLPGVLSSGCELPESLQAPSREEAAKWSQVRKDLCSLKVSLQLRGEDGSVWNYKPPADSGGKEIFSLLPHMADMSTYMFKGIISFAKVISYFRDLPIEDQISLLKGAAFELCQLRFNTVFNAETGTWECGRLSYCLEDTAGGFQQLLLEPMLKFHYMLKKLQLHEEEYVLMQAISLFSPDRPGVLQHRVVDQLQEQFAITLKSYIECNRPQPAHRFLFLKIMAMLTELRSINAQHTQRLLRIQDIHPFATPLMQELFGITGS

[9] = Ratio of permeability from basolateral to apical over apical to basolateral side in P-gp expressing cells
[10] = Half life in Mongrel dog at 1 mg/kg, iv; assay type: ADME, organism-based, Canis lupus familiaris; parameters: dose 1 mg/kg, route intravenous; conditions: in vivo
[11] = Half life in Sprague-Dawley rat at 10 mg/kg, po or 2 mg/kg, iv; assay type: ADME, organism-based; conditions: in vivo
[12] = Oral bioavailability in Sprague-Dawley rat at 10 mg/kg; assay type: ADME, organism-based; conditions: in vivo
B1 bradykinin receptor = molecular target: T3, B1 bradykinin receptor (Homo sapiens, UniProt P46663); test: Binding affinity to human bradykinin B1 receptor expressed in rat CNS
T3 sequence (P46663 whole entry): T1 sequence (whole entry)

[13] = Apparent permeability by cell based assay; assay type: ADME; conditions: not told
[14] = Clearance in Sprague-Dawley rat at 10 mg/kg, po or 2 mg/kg, iv; assay type: ADME, organism-based; conditions: in vivo

| SMILES | bioavailability [1] [%] | bioavailability [2] [%] | Occ90 [3] [nM] | clearance [4] [mL/min/kg] | clearance [5] [mL/min/kg] | Kp [6] | half-life [7] [h] | activity at 10 µM [8] [%] | Ratio [9] | half-life [10] [h] | half-life [11] [h] | bioavailability [12] [%] | Ki (B1 bradykinin receptor) [nM] | Papp [13] [×10⁻⁶ cm/s] | clearance [14] [mL/min/kg] |
| --- | --- | --- | --- | --- | --- | --- | --- | --- | --- | --- | --- | --- | --- | --- | --- |
| COc1cc(C(=O)NC2(C(=O)N[C@H](C)c3ncc(-c4cc(Cl)cc(Cl)c4OCC(F)F)cc3F)CC2)on1 | 94 | 93 | 540 | 1.2 | 1.6 | 0.7 | 6.2 | 8 | 2 | 21 | 4.5 | 44 | 0.5 | 28 | 2.4 |
| C[C@@H](NC(=O)C1(NC(=O)c2ccno2)CC1)c1ncc(-c2cc(Cl)cc(Cl)c2OCC(F)F)cc1F | – | – | – | 5.9 | – | – | – | 21 | 3.9 | 4 | – | – | 0.4 | 29 | – |
| CCOc1c(Cl)cc(Cl)cc1-c1cnc([C@@H](C)NC(=O)C2(NC(=O)c3ccno3)CC2)c(F)c1 | 55 | 3 | 380 | 7 | 15 | 1.4 | 1.2 | 15 | – | 4.5 | 1.9 | 7 | 0.6 | – | 10 |
| C[C@@H](NC(=O)C1(NC(=O)c2cc(Cl)no2)CC1)c1ncc(-c2cc(Cl)cc(Cl)c2OCC(F)F)cc1F | – | – | – | 2.6 | – | – | – | 68 | 1.6 | 34 | – | – | 0.2 | 26 | – |
| CCc1cc(C(=O)NC2(C(=O)N[C@H](C)c3ncc(-c4cc(Cl)cc(Cl)c4OCC(F)F)cc3F)CC2)no1 | – | – | – | 14 | – | – | – | 37 | 2 | 4.5 | – | – | 1.9 | 25 | – |
| CC(C)Oc1c(Cl)cc(Cl)cc1-c1ccc([C@@H](C)NC(=O)C2(NC(=O)C(F)(F)F)CC2)c(F)c1 | – | – | – | – | – | – | – | – | – | – | – | – | 2.3 | – | – |
| C[C@@H](NC(=O)C1(NC(=O)C(F)(F)F)CC1)c1ccc(-c2cc(Cl)cc(Cl)c2OCC(F)F)cc1F | – | – | – | – | – | – | – | 95 | – | – | 7.6 | – | 0.2 | 26 | 5.8 |
| C[C@@H](NC(=O)C1(NC(=O)C(F)(F)F)CC1)c1ccc(-c2cc(Cl)cc(Cl)c2OC(CF)CF)cc1F | – | – | – | – | – | – | – | – | – | – | 5 | 56 | 0.9 | 28 | 1.6 |
| C[C@@H](NC(=O)C1(NC(=O)c2ccon2)CC1)c1ncc(-c2cc(Cl)cc(Cl)c2OCC(F)F)cc1F | – | – | – | 2 | – | – | – | 23 | 1.8 | 18 | – | – | 1.2 | 35 | – |
| CCOc1cc(C(=O)NC2(C(=O)N[C@H](C)c3ncc(-c4cc(Cl)cc(Cl)c4OCC(F)F)cc3F)CC2)on1 | – | – | – | 3 | – | – | – | 37 | 2.1 | 13.5 | – | – | 1.1 | 25 | – |
| CCOc1c(Cl)cc(Cl)cc1-c1cnc([C@@H](C)NC(=O)C2(NC(=O)C(F)(F)F)CC2)c(F)c1 | – | – | 1450 | – | – | 2.2 | – | 89 | – | – | 5 | 8 | 1.5 | – | 11.3 |

Continued by falling Ki (B1 bradykinin receptor), values first:

| bioavailability [1] [%] | bioavailability [2] [%] | Occ90 [3] [nM] | clearance [4] [mL/min/kg] | clearance [5] [mL/min/kg] | Kp [6] | half-life [7] [h] | activity at 10 µM [8] [%] | Ratio [9] | half-life [10] [h] | half-life [11] [h] | bioavailability [12] [%] | Ki (B1 bradykinin receptor) [nM] | Papp [13] [×10⁻⁶ cm/s] | clearance [14] [mL/min/kg] | SMILES |
| --- | --- | --- | --- | --- | --- | --- | --- | --- | --- | --- | --- | --- | --- | --- | --- |
| – | – | – | 13 | – | – | – | 58 | 3.8 | 6.9 | – | – | 2.6 | 18 | – | C[C@@H](NC(=O)C1(NC(=O)c2cc(C3CC3)on2)CC1)c1ncc(-c2cc(Cl)cc(Cl)c2OCC(F)F)cc1F |
| – | – | – | – | – | – | – | 45 | – | – | 27 | 35 | 1.8 | 6.3 | 1.1 | C[C@@H](NC(=O)C1(NC(=O)C(F)(F)F)CC1)c1ccc(-c2cc(Cl)cc(Cl)c2OCC(F)(F)F)cc1F |
| – | – | – | 2.3 | – | – | – | 99 | – | 21 | – | – | 1.5 | 23 | – | C[C@@H](NC(=O)C1(NC(=O)C(F)(F)F)CC1)c1ncc(-c2cc(Cl)cc(Cl)c2OCC(F)F)cc1F |
| 21 | 25 | 940 | 4.5 | 9.1 | 0.9 | 1.6 | 28 | 1.5 | 9.4 | 3 | 30 | 1.4 | 23 | 5.1 | Cc1cc(C(=O)NC2(C(=O)N[C@H](C)c3ncc(-c4cc(Cl)cc(Cl)c4OCC(F)F)cc3F)CC2)no1 |
| – | – | – | – | – | – | – | 62 | – | – | 7.5 | 38 | 1.3 | 18 | 11.5 | CCOc1c(Cl)cc(Cl)cc1-c1ccc([C@@H](C)NC(=O)C2(NC(=O)C(F)(F)F)CC2)c(F)c1 |
| – | – | – | – | – | – | – | – | 1.9 | – | 1.9 | 48 | 0.9 | 29 | 16 | CCOc1c(Cl)cccc1-c1ccc([C@@H](C)NC(=O)C2(NC(=O)C(F)(F)F)CC2)c(F)c1 |
| – | – | – | 20 | 11.2 | – | – | 77 | – | 1.6 | – | – | 0.4 | – | – | COC(=O)c1c(Cl)cc(Cl)cc1-c1ccc([C@@H](C)NC(=O)C2(NC(=O)C(F)(F)F)CC2)c(F)c1 |
| – | – | – | – | – | – | – | 40 | 5.1 | – | – | – | 0.4 | – | – | COC(=O)c1c(Cl)cc(Cl)cc1-c1ccc([C@@H](C)NC(=O)C2(NC(=O)c3cc(OC)no3)CC2)c(F)c1 |
